Laboratory results: patent US4467104A, “Esters of 2-(2-chlorocarbonyl)-2-(2,3-dihydro-2-alkylbenzofuran-7-yl)-hydrazinecar boxylic acid” (Shell Oil Company, priority 1982, dated 1984)

Assays:
Format in all cases: in vivo
[1] = tested on: Corn earworm larvae (Heliothis zea (Boddie)); experiment: Corn earworm larvae test on sprayed broad bean plant (44-46 hours); settings: concentration by weight in the formulation
Protocol: V. Corn earworm larvae (Heliothis zea (Boddie)) were tested by spraying a broad bean plant with dilutions of an acetone solution of the test compound in water containing an emulsifier. Immediately after spraying, 5 larvae were transferred to the plant and held for 44-46 hours, at which time the dead and moribund larvae were counted. The tests were conducted employing several different dosage rates for each test compound.
(§1) In the case of each species of insect, the concentration of the test compound by weight in the formulation required to kill fifty percent of the test insects--i.e., the LC50 dosage--was determined.

[2] = tested on: Adult female two-spotted mites (Tetranychus urticae (Koch)); experiment: Two-spotted spider mite test on sprayed pinto bean leaves (about 20 hours); settings: concentration by weight in the formulation
Protocol: III. Adult female two-spotted mites (Tetranychus urticae (Koch) was tested by placing 50-75 mites on the bottom side of leaves of pinto bean plants. The leaves were sprayed with dilutions of an acetone solution of the test compound in water containing an emulsifier and kept under laboratory conditions for about 20 hours, at which time mortality counts were made. The tests were conducted employing several different dosage rates for each test compound.
as §1

[3] = tested on: Pea aphids (Acyrthosiphon pisum (Harris)); experiment: Pea aphid test on sprayed broad bean plants (living aphids counted at 18 to 20 hours); settings: concentration by weight in the formulation
Protocol: II. Pea aphids (Acyrthosiphon pisum (Harris)) were tested by placing about 100 aphids on broad bean plants. The plants were sprayed with dilutions of an acetone solution of the test compound in water containing an emulsifier and held in containers under laboratory conditions for 18 to 20 hours, at which time the living aphids in the containers were counted. The tests were conducted employing several different dosage rates for each test compound.
as §1

[4] = tested on: Houseflies (Musca domestica (Linne)); experiment: Housefly spray test (mortality after 18-20 hours); settings: concentration by weight in the formulation
Protocol: I. Houseflies (Musca domestica (Linne)) were tested by placing 50 4- to 5-day old housflies into a spray cage and spraying with 0.6 ml of a solution of test compound. After spraying, the flies were anesthetized with CO2 and transferred to a recovery cage containing a milk pad for food. The cages were held for 18-20 hours after which mortality counts were made. Both dead and moribund flies were counted. The tests were conducted employing several different dosage rates for each test compound.
as §1

[5] = tested on: Mosquito larvae (Anopheles albimanus (Weide)); experiment: Mosquito larvae test in water (mortality after 18-22 hours); settings: in distilled water
Protocol: IV. Mosquito larvae (Anopheles albimanus (Weide)) were tested by placing 10 living and active mosquito larvae in a jar containing a 0.1 ml aliquot of a 1% acetone solution of the test compound thoroughly mixed with 100 ml of distilled water. After 18-22 hours, mortality counts were taken. Both dead and moribund larvae were counted as dead. […] The tests were conducted employing several different dosage rates for each compound.
as §1

For `CCOC(=O)NN(C(=O)Cl)c1cccc2c1OC(C)(C)C2` [Compound 2, 2-(2-chlorocarbonyl)-2-(2,3-dihydro-2,2-dimethyl-benzofuran-7-yl)hydrazinecarboxylic acid ethyl ester], the “LC50 Corn Earworm” value [1] was 0.1 % w, the “LC50 Spider mite” value [2] was > 0.2 % w and the “LC50 Pea Aphid” value [3] was 0.0003 % w. The “LC50 Housefly” value [4] was > 0.5 % w and the “LC50 Mosquito Larvae” value [5] was > 0.1 ppm.

In the case of `COC(=O)NN(C(=O)Cl)c1ccc(C)c2c1OC(C)(C)C2` [Compound 4, 2-(2-chlorocarbonyl)-2-(2,3-dihydro-2,2,4-trimethylbenzofuran-7-yl)hydrazinecarboxylic acid methyl ester], the “LC50 Corn Earworm” value [1] is reported as 0.033 % w, the “LC50 Spider mite” value [2] is reported as > 0.2 % w and the “LC50 Pea Aphid” value [3] is reported as 0.0002 % w. For the same compound, the “LC50 Housefly” value [4] was > 0.5 % w and the “LC50 Mosquito Larvae” value [5] was 0.02 ppm.

With `COC(=O)NN(C(=O)Cl)c1cccc2c1OC(C)C2` (centres unmarked) [Compound 5, 2-(2-chlorocarbony)-2-(2,3-dihydro-2-methylbenzofuran-7-yl)-hydrazinecarboxylic acid methyl ester] the “LC50 Corn Earworm” value [1] was 0.057 % w, the “LC50 Spider mite” value [2] was > 0.2 % w and the “LC50 Pea Aphid” value [3] was 0.0005 % w. For the same compound, the “LC50 Housefly” value [4] was > 0.5 % w and the “LC50 Mosquito Larvae” value [5] was 0.039 ppm.

`COC(=O)NN(C(=O)Cl)c1cccc2c1OC(C)(C)C2` [Compound 1, 2-(2-chlorocarbonyl)-2-(2,3-dihydro-2,2-dimethylbenzofuran-7-yl)hydrazinecarboxlic acid methyl ester] was tested, and the “LC50 Corn Earworm” value [1] was 0.043 % w, the “LC50 Spider mite” value [2] was > 0.02 % w and the “LC50 Pea Aphid” value [3] was 0.00008 % w. The “LC50 Housefly” value [4] was > 0.5 % w and the “LC50 Mosquito Larvae” value [5] was 0.016 ppm.
